Tests used:
[1] = monkey, in vivo
[2] = tested on: SARS-CoV-2; assay: Cytopathic effect (CPE) suppression effect confirmation test using VeroE6/TMPRSS2 cells; type: cell-based
[3] = tested on: SARS-CoV-2; assay: Phase 2/3 study, Phase 2a Part: COVID-19 symptom score and exacerbation (Ordinal scale); type: in vivo, human; details: mild/moderate patients
Experimental: The 750/250 mg group received 750 mg on Day 1 as a loading dose and 250 mg on Days 2 to 5 as a maintenance dose.

[4] = tested on: SARS-CoV-2; details: mouse, in vivo
[5] = tested on: SARS-CoV-2; assay: Phase 2/3 study, Phase 2b Part: SARS-CoV-2 virus titer on Day 4; type: in vivo, human; details: for Change from baseline in SARS-CoV-2 virus titer on Day 4: Adjusted mean value by covariance analysis (standard error) / Change from baseline in SARS-CoV-2 virus titer on Day 4: Difference of adjusted mean value from that of placebo group (standard error) / Change from baseline in SARS-CoV-2 virus titer on Day 4: Maximum value / Change from baseline in SARS-CoV-2 virus titer on Day 4: Mean value / Change from baseline in SARS-CoV-2 virus titer on Day 4: Median value / Change from baseline in SARS-CoV-2 virus titer on Day 4: Minimum value: mild/moderate patients, ITT1 population
Experimental: The primary endpoints of Phase 2b Part were the time-weighted average change in the total score of 12 COVID-19 symptoms per unit time from the start of the first administration (Day 1) to 120 hours (Day 6), and the change from baseline in SARS-CoV-2 virus titer on Day 4, in mild/moderate SARS-CoV-2-infected patients, and the clinical improvement and the antiviral effect of the active drug were confirmed.
(§1) The administration of the active drug is repeated oral administration once a day for 5 days. The 375/125 mg group received 375 mg on Day 1 as a loading dose and 125 mg on Days 2 to 5 as a maintenance dose. The 750/250 mg group received 750 mg on Day 1 as a loading dose and 250 mg on Days 2 to 5 as a maintenance dose.
The primary efficacy endpoints of Phase 2b Part for mild/moderate SARS-CoV-2-infected patients were the time-weighted average change in the total score of 12 COVID-19 symptoms per unit time from the start of the first administration (Day 1) to 120 hours (Day 6), and the change from baseline in SARS-CoV-2 virus titer on Day 4. The total score of 12 COVID-19 symptoms is the sum of the scores determined by evaluation in four grades (0: none, 1: mild, 2: moderate, 3: severe) in the subject daily records for each of the 12 COVID-19 symptoms (low energy and tiredness, muscle or body aches, headache, chills or shivering, feeling hot or feverish, stuffy and runny nose, sore throat, cough, shortness of breath (difficulty breathing), nausea, vomiting, diarrhea).
Pairwise comparison was performed between each active drug dose group and the placebo group. […] Pairwise comparison was performed between each active drug dose group and the placebo group.

[6] = tested on: SARS-CoV-2; assay: Phase 2/3 study, Phase 2a Part: SARS-CoV-2 virus titer; type: in vivo, human; details: for Change from baseline in SARS-CoV-2 virus titer compared to placebo group: mITT, significance level 0.05
Experimental: The primary endpoint of Phase 2a Part was the change from baseline in SARS-CoV-2 virus titer at each time point in common among mild/moderate and asymptomatic SARS-CoV-2-infected patients, and the antiviral effect of the active drug was confirmed.
as §1
The primary efficacy endpoint of Phase 2a Part was the change from baseline in SARS-CoV-2 virus titer at each time point in common among mild/moderate and asymptomatic SARS-CoV-2-infected patients. It was defined as an absolute change from baseline in observed value of SARS-CoV-2 virus titer at each time point.
For each population of the mild/moderate SARS-CoV-2-infected patients, the asymptomatic SARS-CoV-2-infected patients, and the merged population thereof, summary statistics of the change from baseline in SARS-CoV-2 virus titer at each time point were calculated for the mITT population. Furthermore, a van Elteren test was applied to a combined population of mild/moderate and asymptomatic SARS-CoV-2-infected patients. Pairwise comparisons were made between each active drug dose group and the placebo group for SARS-CoV-2 virus titer at each time point at a two-sided significance level of 5%. The population of the mild/moderate SARS-CoV-2-infected patients and the population of the asymptomatic SARS-CoV-2-infected patients were used as strata in the van Elteren test.
In addition, when the virus titer was less than the lower detection limit (0.8 log10 (TCID50/mL)), the value of the virus titer was handled as 0.8 log10 (TCID50/mL). […] In the RT-PCR measurement results and the virus titer measurement results that were available by the time point of Jan.

## Cn1cnc(Cn2c(=O)[nH]/c(=N\c3cc4cn(C)nc4cc3Cl)n(Cc3cc(F)c(F)cc3F)c2=O)n1 [(6E)-6-[(6-chloro-2-methyl-2H-indazol-5-yl)imino]-3-[(1-methyl-1H-1,2,4-triazol-3-yl)methyl]-1-[(2,4,5-trifluorophenyl)methyl]-1,3,5-triazinane-2,4-dione]
[1]
  NOAEL (plasma concentration): 75.2 to 77.6 µg/mL
[2]; Severe acute respiratory syndrome coronavirus 2, VeroE6/TMPRSS2, Alpha strain (QHN001)
  EC50: 310 nM
[2]; Severe acute respiratory syndrome coronavirus 2, VeroE6/TMPRSS2, Alpha strain (QHN002)
  EC50: 460 nM
[2]; Severe acute respiratory syndrome coronavirus 2, VeroE6/TMPRSS2, Alpha strain (QK002)
  EC50: 330 nM
[2]; Severe acute respiratory syndrome coronavirus 2, VeroE6/TMPRSS2, Beta strain (TY8-612)
  EC50: 400 nM
[2]; Severe acute respiratory syndrome coronavirus 2, VeroE6/TMPRSS2, Delta strain (TY11-927-P1)
  EC50: 410 nM
[2]; Severe acute respiratory syndrome coronavirus 2, VeroE6/TMPRSS2, Gamma strain (TY7-501)
  EC50: 500 nM
[2]; Severe acute respiratory syndrome coronavirus 2, VeroE6/TMPRSS2, Gamma strain (TY7-503)
  EC50: 430 nM
[2]; Severe acute respiratory syndrome coronavirus 2, VeroE6/TMPRSS2, Lambda strain (TY33-456)
  EC50: 270 nM
[2]; Severe acute respiratory syndrome coronavirus 2, VeroE6/TMPRSS2, Mu strain (TY26-717)
  EC50: 430 nM
[2]; Severe acute respiratory syndrome coronavirus 2, VeroE6/TMPRSS2, Omicron BA.1 strain (TY38-873)
  EC50: 290 nM
[2]; Severe acute respiratory syndrome coronavirus 2, VeroE6/TMPRSS2, Omicron BA.1.1 strain (TY38-871)
  EC50: 360 nM
[2]; Severe acute respiratory syndrome coronavirus 2, VeroE6/TMPRSS2, Omicron BA.2 strain (TY40-385)
  EC50: 520 nM
[2]; Severe acute respiratory syndrome coronavirus 2, VeroE6/TMPRSS2, Omicron BA.2.12.1 strain (TY41-721)
  EC50: 240 nM
[2]; Severe acute respiratory syndrome coronavirus 2, VeroE6/TMPRSS2, Omicron BA.2.75 strain (TY41-716)
  EC50: 300 nM
[2]; Severe acute respiratory syndrome coronavirus 2, VeroE6/TMPRSS2, Omicron BA.4 strain (TY41-703)
  EC50: 220 nM
[2]; Severe acute respiratory syndrome coronavirus 2, VeroE6/TMPRSS2, Omicron BA.5 strain (TY41-702)
  EC50: 400 nM
[2]; Severe acute respiratory syndrome coronavirus 2, VeroE6/TMPRSS2, Omicron BQ.1.1 strain (TY41-796)
  EC50: 480 nM
[2]; Severe acute respiratory syndrome coronavirus 2, VeroE6/TMPRSS2, Omicron XBB.1 strain (TY41-795)
  EC50: 330 nM
[2]; Severe acute respiratory syndrome coronavirus 2, VeroE6/TMPRSS2, Omicron XE strain (TY41-686)
  EC50: 440 nM
[2]; Severe acute respiratory syndrome coronavirus 2, VeroE6/TMPRSS2, Theta strain (TY28-444)
  EC50: 290 nM
[3]; 375/125 mg group
  Exacerbation rate (Ordinal scale deteriorated to 3 or more for the first time): 0.0%
  Number of exacerbations/number of cases to be analyzed: 0/13
[3]; 375/125 mg group and 750/250 mg group, all time points on Day 2 and thereafter, FIG. 6
  Change from baseline in total score of 12 COVID-19 symptoms compared to placebo group: tendency for the total score of the twelve COVID-19 symptoms to numerically improve
[3]; 750/250 mg group
  Exacerbation rate (Ordinal scale deteriorated to 3 or more for the first time): 0.0%
  Number of exacerbations/number of cases to be analyzed: 0/12
[4]
  maximum plasma concentration (Cmax) in humans that reduces the virus titer by 2 log: 14.1 μg/mL
  maximum plasma concentration (Cmax) in humans that reduces the virus titer by 3 log: 23.0 μg/mL
[5]; 375/125 mg group
  Proportion of patients with a positive virus titer of 1.1 or more on Day 4: 1.9%
  Change from baseline in SARS-CoV-2 virus titer on Day 4: Adjusted mean value by covariance analysis (standard error): −1.49 (0.04)
  Change from baseline in SARS-CoV-2 virus titer on Day 4: Difference of adjusted mean value from that of placebo group (standard error): −0.41 (0.05)
  Change from baseline in SARS-CoV-2 virus titer on Day 4: Maximum value: 0.0
  Change from baseline in SARS-CoV-2 virus titer on Day 4: Mean value: −1.69
  Change from baseline in SARS-CoV-2 virus titer on Day 4: Median value: −1.70
  Change from baseline in SARS-CoV-2 virus titer on Day 4: Minimum value: −3.7
[5]; 375/125 mg group and 750/250 mg group, p<0.0001
  SARS-CoV-2 virus titer on Day 4 as compared with the placebo group: statistically significantly reduced
[5]; 750/250 mg group
  Proportion of patients with a positive virus titer of 1.1 or more on Day 4: 5.4%
  Change from baseline in SARS-CoV-2 virus titer on Day 4: Adjusted mean value by covariance analysis (standard error): −1.49 (0.04)
  Change from baseline in SARS-CoV-2 virus titer on Day 4: Difference of adjusted mean value from that of placebo group (standard error): −0.41 (0.05)
  Change from baseline in SARS-CoV-2 virus titer on Day 4: Maximum value: 0.0
  Change from baseline in SARS-CoV-2 virus titer on Day 4: Mean value: −1.43
  Change from baseline in SARS-CoV-2 virus titer on Day 4: Median value: −1.40
  Change from baseline in SARS-CoV-2 virus titer on Day 4: Minimum value: −3.4
[6]; Day 4, 375/125 mg group
  Decrease of proportion of patients with a positive virus titer of 0.8 or more, with respect to placebo group: 63%
[6]; Day 4, 750/250 mg group
  Decrease of proportion of patients with a positive virus titer of 0.8 or more, with respect to placebo group: 80%
[6]; Day 6, 375/125 mg group
  Decrease of proportion of patients with a positive virus titer of 0.8 or more, with respect to placebo group: 100%
[6]; Day 6, 750/250 mg group
  Decrease of proportion of patients with a positive virus titer of 0.8 or more, with respect to placebo group: 54%
[6]; 375/125 mg group, Visit 3 (Day 4)
  Change from baseline in SARS-CoV-2 virus titer compared to placebo group: statistically significantly decreased
[6]; 750/250 mg group, Visit 2 (Day 2) and Visit 3 (Day 4)
  Change from baseline in SARS-CoV-2 virus titer compared to placebo group: statistically significantly decreased
[6]; results available by Jan. 17, 2022, 375/125 mg group, all time points after Visit 3 (Day 4)
  SARS-CoV-2 virus titer compared to placebo group: tendency for the virus titer to decrease
[6]; results available by Jan. 17, 2022, 750/250 mg group, all time points after Visit 2 (Day 2)
  SARS-CoV-2 virus titer compared to placebo group: tendency for the virus titer to decrease
